Legend:
[1] = test system: IL-1β cytokine output from THP-1s; assay: THP-1 AlphaLISA IL-1β cytokine inhibition assay; assay type: cell-based; details: Homo sapiens, THP-1, differentiated THP-1 cells, LPS then nigericin
Description: Measuring Inhibitory Effects on IL-1β Cytokine Output from THP-1s
The cytokine inhibition profiles of compounds of formula (I) were determined in a differentiated THP-1 cell assay. All assays were performed in RPMI-1640 growth medium (Gibco), supplemented with 10% fetal bovine serum (FBS; Gibco), 1% penicillin-streptomycin and 1% sodium pyruvate unless specified otherwise. The IL-1β cytokine inhibition assay was run in a background of differentiated THP-1 cells as described below. All reagents described were from Sigma-Aldrich unless specified otherwise. Compounds were prepared as 10 mM DMSO stocks.
THP-1 cells were expanded as a suspension up to 80% confluence in appropriate growth medium. Cells were harvested, suspended, and treated with an appropriate concentration of phorbol 12-myristate 13-acetate (PMA) over a 72 hr period (37° C./5% CO2).
Following 72 hrs of THP-1 cell incubation, cellular medium was removed and replaced with fresh growth media containing 1% of FBS. Working concentrations of compounds were prepared separately in 10% FBS treated growth medium and pre-incubated with the cells for 30 minutes (37° C./5% CO2). Following the 30 minute compound pre-incubation, THP-1s were treated with an appropriate concentration of LPS and the cells were subsequently incubated for a 24 hr period (37° C./5% CO2). An appropriate final concentration of Nigericin was then dispensed into the THP-1 plates and incubated for 1 hour (37° C./5% CO2) before THP-1 supernatants were harvested and collected in separate polypropylene 96-well holding plates.
Reagents from an IL-1β and IL-6 commercial kit (Perkin Elmer) were prepared and run according to the manufacturer's instructions. Subsequently, fluorescence signal detection in a microplate reader was measured (EnVision® Multilabel Reader, Perkin Elmer).
Percentage inhibition was calculated per cytokine by normalising the sample data to the high and low controls used within each plate (+/− LPS respectively).

[2] = Hepatocyte stability assay, mouse; assay type: in vitro ADME; details: mouse, hepatocytes; for hepatocyte CLint at 10 μM: Hepatocyte stability Clint; for half-life at 10 μM: Hepatocyte stability T½
Text: (§1) Defrosted cryo-preserved hepatocytes (viability >70%) were used to determine the metabolic stability of a compound via calculation of intrinsic clearance (CIint; a measure of the removal of a compound from the liver in the absence of blood flow and cell binding). Clearance data are particularly important for in vitro work as they can be used in combination with in vivo data to predict the half-life and oral bioavailability of a drug.
(§2) The metabolic stability in hepatocytes assay involves a time-dependent reaction using both positive and negative controls. The cells were pre-incubated at 37° C. then spiked with test compound (and positive control); samples were taken at pre-determined time intervals and were analysed to monitor the change in concentration of the initial drug compound over 60 minutes. A buffer incubation reaction (with no hepatocytes present) acted as a negative control and two cocktail solutions, containing compounds with known high and low clearance values (verapamil/7-hydroxycoumarin and propranolol/diltiazem), acted as positive controls. • 1. The assay was run with a cell concentration of 0.5×10^6 cells/mL in Leibovitz buffer. • 2. All compounds and controls were run in duplicate. • 3. Compound concentration was 10 μM. • 4. All compounds and controls were incubated with both cells and buffer to show turnover was due to hepatic metabolism. • 5. All wells on the incubation plate had 326.7 μL of either cells or buffer added. • 6. Prior to assay, cell and buffer-only incubation plates were preincubated for 10 mins at 37° C. • 7. The assay was initiated by adding compounds, 3.3 μL of 1 mM in 10% DMSO—90% Buffer; final DMSO concentration was 0.1%. • 8. Samples were taken at regular timepoints (0, 5, 10, 20, 40, 60 min) until 60 mins. • 9. Sample volume was 40 μL and was added to 160 μL of crash solvent (acetonitrile with internal standard) and stored on ice. • 10. At the end of the assay, the crash plates were centrifuged at 3500 rpm for 20 mins at 4° C. • 11. 80 μL of clear supernatant was removed and mixed with 80 μL of deionised water before being analysed by LC-MS/MS.
(§3) Raw LC-MS/MS data was exported to, and analysed in, Microsoft Excel for determination of intrinsic clearance. The percentage remaining of a compound was monitored using the peak area of the initial concentration as 100%. Intrinsic clearance and half-life values were calculated using a graph of the natural log of percentage remaining versus the time of reaction in minutes.

[3] = Hepatocyte stability assay, human; assay type: in vitro ADME; details: human, hepatocytes; for hepatocyte CLint at 10 μM: Hepatocyte stability Clint; for half-life at 10 μM: Hepatocyte stability T½
Text: as §1, §2, §3

SMILES | IC50 [1] | hepatocyte CLint at 10 μM [2] | half-life at 10 μM [2] | hepatocyte CLint at 10 μM [3] | half-life at 10 μM [3]
C=C(Cc1nc(Cc2cc(Cl)c(F)c(Cl)c2)no1)C(=O)O [Example 134, 2-((3-(3,5-dichloro-4-fluorobenzyl)-1,2,4-oxadiazol-5-yl)methyl)acrylic acid] | 15.8 µM | 17 µL/min/1e6 cells | 75 min | 13 µL/min/1e6 cells | 112 min
C=C(Cc1nc(-c2ccc(C(F)(F)CCC)cc2)no1)C(=O)O [Example 98, 2-((3-(4-(1,1-difluorobutyl)phenyl)-1,2,4-oxadiazol-5-yl)methyl)acrylic acid] | 37.2 µM | 208 µL/min/1e6 cells | 6 min | 70 µL/min/1e6 cells | 23 min
C=C(Cc1noc(C(F)(F)c2ccc(C(F)(F)F)cc2)n1)C(=O)O [Example 97, 2-((5-(difluoro(4-(trifluoromethyl)phenyl)methyl)-1,2,4-oxadiazol-3-yl)methyl)acrylic acid] | 22.1 µM | 79 µL/min/1e6 cells | 15 min | 13 µL/min/1e6 cells | 125 min
C=C(Cc1nc(Cc2ccc(C3CCC3)cc2)no1)C(=O)O [Example 128, 2-((3-(4-cyclobutylbenzyl)-1,2,4-oxadiazol-5-yl)methyl)acrylic acid] | 26.3 µM | 256 µL/min/1e6 cells | 6 min | 49 µL/min/1e6 cells | 30 min
C=C(Cc1nc(C2(c3ccc(C4CCC4)cc3)CC2)no1)C(=O)O [Example 131, 2-((3-(1-(4-cyclobutylphenyl)cyclopropyl)-1,2,4-oxadiazol-5-yl)methyl)acrylic acid] | 7.9 µM | 139 µL/min/1e6 cells | 11 min | 34 µL/min/1e6 cells | 43 min
C=C(Cc1nc(Cc2ccc(C3(CCC)CC3)cc2)no1)C(=O)O [Example 147, 2-((3-(4-(1-propylcyclopropyl)benzyl)-1,2,4-oxadiazol-5-yl)methyl)acrylic acid] | 29.9 µM | > 460 µL/min/1e6 cells | < 3 min | 67 µL/min/1e6 cells | 22 min
C=C(Cc1nc(C2(c3ccc(Br)c(Cl)c3)CC2)no1)C(=O)O [Example 138, 2-((3-(1-(4-bromo-3-chlorophenyl)cyclopropyl)-1,2,4-oxadiazol-5-yl)methyl)acrylic acid] | 3 µM | > 460 µL/min/1e6 cells | < 3 min | 96 µL/min/1e6 cells | 15 min
C=C(Cc1nc(-c2cccc(CCCC)c2)no1)C(=O)O [Example 27, 2-((3-(3-butylphenyl)-1,2,4-oxadiazol-5-yl)methyl)acrylic acid] | 29.6 µM | 281 µL/min/1e6 cells | 5 min | 156 µL/min/1e6 cells | 8 min
C=C(Cc1nc(CCCCCCCC)cs1)C(=O)O [Example 38, 2-((4-octylthiazol-2-yl)methyl)acrylic acid] | 7.8 µM | 204 µL/min/1e6 cells | 9 min | > 447 µL/min/1e6 cells | < 3 min
C=C(Cc1nc(C(F)(F)c2cc(Cl)c(F)c(Cl)c2)no1)C(=O)O [Example 153, 2-((3-((3,5-dichloro-4-fluorophenyl)difluoromethyl)-1,2,4-oxadiazol-5-yl)methyl)acrylic acid] | 17.3 µM | 44 µL/min/1e6 cells | 34 min | 23 µL/min/1e6 cells | 62 min
C=C(Cc1nc(C(F)(F)c2ccc(I)cc2)no1)C(=O)O [Example 120, 2-((3-(difluoro(4-iodophenyl)methyl)-1,2,4-oxadiazol-5-yl)methyl)acrylic acid] | 3.6 µM | 66 µL/min/1e6 cells | 20 min | 10 µL/min/1e6 cells | 154 min
C=C(Cc1nc(C(F)(F)c2ccc(Br)c(Cl)c2)no1)C(=O)O [Example 154, 2-((3-((4-bromo-3-chlorophenyl)difluoromethyl)-1,2,4-oxadiazol-5-yl)methyl)acrylic acid] | 9.5 µM | 203 µL/min/1e6 cells | 7 min | 41 µL/min/1e6 cells | 35 min
C=C(Cc1nc(C2(c3ccc(C4CCCC4)cc3)CC2)no1)C(=O)O [Example 115] | 7.9 µM | 87 µL/min/1e6 cells | 15 min | 28 µL/min/1e6 cells | 55 min
C=C(Cc1ccc(CCCCCCCC)nn1)C(=O)O [Example 116] | 27.9 µM | 290 µL/min/1e6 cells | 5 min | 60 µL/min/1e6 cells | 25 min
C=C(Cc1nc(C2(c3ccc(OC4CCC4)cc3)CC2)no1)C(=O)O [Example 111, 2-((3-(1-(4-cyclobutoxyphenyl)cyclopropyl)-1,2,4-oxadiazol-5-yl)methyl)acrylic acid] | 31.4 µM | 382 µL/min/1e6 cells | 3 min | 23 µL/min/1e6 cells | 71 min
C=C(Cc1cnc(CCCCCCCC)cn1)C(=O)O [Example 113] | 20.1 µM | > 460 µL/min/1e6 cells | < 3 min | 290 µL/min/1e6 cells | 5 min
C=C(Cc1nc(C2(c3ccc(I)cc3)CC2)no1)C(=O)O [Example 117, 2-((3-(1-(4-iodophenyl)cyclopropyl)-1,2,4-oxadiazol-5-yl)methyl)acrylic acid] | 3.4 µM | 183 µL/min/1e6 cells | 7 min | 36 µL/min/1e6 cells | 43 min
C=C(Cc1nc(C(F)(F)c2ccc(S(F)(F)(F)(F)F)cc2)no1)C(=O)O [Example 124, 2-((3-(difluoro(4-(pentafluoro-λ^6-sulfaneyl)phenyl)methyl)-1,2,4-oxadiazol-5-yl)methyl)acrylic acid] | 16.6 µM | 55 µL/min/1e6 cells | 27 min | 14 µL/min/1e6 cells | 105 min
C=C(Cc1nc(-c2ccc(OCCCC)c(F)c2)no1)C(=O)O [Example 129, 2-((3-(4-butoxy-3-fluorophenyl)-1,2,4-oxadiazol-5-yl)methyl)acrylic acid] | 20.6 µM | > 460 µL/min/1e6 cells | < 3 min | 67 µL/min/1e6 cells | 22 min
C=C(Cc1nc(-c2ccc(OCc3ccccc3)cc2)no1)C(=O)O [Example 100, 2-((3-(4-(benzyloxy)phenyl)-1,2,4-oxadiazol-5-yl)methyl)acrylic acid] | 25.8 µM | > 460 µL/min/1e6 cells | < 3 min | 77 µL/min/1e6 cells | 19 min
